Measured values as given in patent US7521479B2 (priority 2001, dated 2009).
Counter-ions that a name gives are not always drawn.

How the values were obtained:
[1] = biological target: Aβ1-40 (Homo sapiens, UniProt P05067); conditions: cited from earlier work
[2] = biological target: PrP^Sc (Mus musculus, UniProt P04925); conditions: neuroblastoma cell line permanently infected with prions; cited from earlier work
[3] = system: prions; conditions: rodents, administered prophylactically; cited from earlier work
[4] = system: scrapie strain ME7; format: in vivo, C57BL mice
[5] = in vivo; cited from earlier work
[6] = group d, spleens, at time of death

Chain of Aβ1-40 (P05067 672-711 limits assumed): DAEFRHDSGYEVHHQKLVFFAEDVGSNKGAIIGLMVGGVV
Chain of PrP^Sc (P04925 23-230 limits assumed): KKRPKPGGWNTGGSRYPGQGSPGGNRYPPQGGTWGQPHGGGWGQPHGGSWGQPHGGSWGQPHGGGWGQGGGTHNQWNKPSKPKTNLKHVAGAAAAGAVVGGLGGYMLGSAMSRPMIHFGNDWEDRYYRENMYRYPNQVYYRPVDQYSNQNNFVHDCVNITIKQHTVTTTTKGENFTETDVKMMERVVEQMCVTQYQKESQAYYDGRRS

Q: For Oc1ccc(O)c2ccccc12 [1,4-dihydroxynaphthalene], which “inhibition of Aβ1-40 aggregation and neurotoxicity” value [1] is on record?
A: The value was “inhibit Aβ1-40 aggregation and neurotoxicity at comparable molar concentrations to rifampicin”.

Q: What does the source list for Nc1c(/N=N/c2ccc(-c3ccc(/N=N/c4cc(S(=O)(=O)O)c5ccccc5c4N)cc3)cc2)cc(S(=O)(=O)O)c2ccccc12 [Congo red]?
A: accumulation of PrP^Sc [2]: reduce the accumulation of PrP^Sc; disease onset [3]: delay disease onset

Q: For Oc1ccc(O)cc1 [Hydroquinone], which “inhibition of Aβ1-40 aggregation and neurotoxicity” value [1] is on record?
A: The value was “inhibit Aβ1-40 aggregation and neurotoxicity at comparable molar concentrations to rifampicin”.

Q: With N=C(N)N [guanidine hydrochloride] as the compound, how does the “PrP^Sc titers at the final endpoint versus group b” value [4, 6] read?
A: Its value is “lower PrP^Sc titers”.

Q: What about the “infectivity at the final endpoint versus group b” value [4, 6] of the same compound?
A: The value was “lower infectivity”.

Q: And the “survival (time of death) of treated infected mice” value ([4]; group d: ME7 i.p., oral treatment from 70 days post-infection, 15 then 40 mg/kg/day)?
A: Its value is “live as long as the mice in group a”.

Q: And the “PrP^Sc level with treatment from one day post inoculation” value ([4]; group f, prophylactic-like treatment)?
A: The value was “negligible or not much higher than that provided in the initial inoculum”.

Q: What about the “overall efficacy in scrapie” value ([4]; overall results) of the same compound?
A: Its value is “effective in the treatment of scrapie”.

Q: And the side effects [5]?
A: The side effects was “bone marrow depression to renal problems to cardiac arrhythmia”.
